Results as given in a melting point compilation (Tetko et al.; mined from patent text by program, amines drawn as free bases though some values may be those of a salt).

melting point	SMILES
238 to 240 °C	CC1=C(C(N)=O)C(c2cccc([N+](=O)[O-])c2)n2ccnc2N1 (stereo not drawn)
207 to 208 °C	CCCc1cc2c(c3c1[nH]c1ccc(OC)cc13)C(=O)N(CCN(C)C)C2=O
90 to 96 °C	Nc1cc(Cl)cc(Cl)c1C(=O)NCc1ccccc1
224 to 226 °C	CC(C(=O)O)c1ccc(N2C(=O)C3CCCCC3C2=O)cc1 (stereo not drawn)
165 to 167 °C	COc1cc(OC)c2c(=O)cc(-c3ccccc3Cl)oc2c1C1CCN(C)C1C(=O)O (stereo not drawn)
120 to 130 °C	CN1C(=O)CCC1(O)c1ccc(Cl)c(S(=O)(=O)Nc2cc(C(C)(C)C)c(O)c(C(C)(C)C)c2)c1 (stereo not drawn)
138 to 142 °C	O=C(O)c1cn(-c2ccc(Br)cc2)c(-c2ccc(Cl)cc2Cl)n1
120 to 122 °C	Cn1c(=O)cc(CCCl)c2cc(Cl)ccc21
160 to 170 °C	CS(=O)CCC(NS(=O)(=O)c1ccc2c(c1)Sc1ccccc1O2)C(=O)O (stereo not drawn)
97 to 98 °C	O=C1CCCCC1C(=S)Nc1ccc(Cl)cc1F (stereo not drawn)
153 to 155 °C	N#CC(N=Nc1cc(S(=O)(=O)Cl)ccc1OC(=O)c1ccccc1)=C(OC(=O)c1ccccc1)c1ccccc1
69 to 72 °C	COCCCNc1cc(C)ccc1N
165 °C	COc1c(Br)c(-c2cc(C(C)C)n(C)n2)cc2oc(=O)c(Cl)c(C)c12
101 to 103 °C	CCOC(=O)C1=C(C)NC(C=O)=C(C(=O)OCC)C1c1ccccc1[N+](=O)[O-] (stereo not drawn)
178 to 180 °C	COC(=O)CCc1c(O)ncc2cc(OC)c(OC)cc12
60 to 62 °C	CCOC(=O)C(C)(C)Oc1ccc(OCCn2c(=O)sc3cc(C(=NO)c4ccccc4)ccc32)cc1
190 °C	CCOCCOc1c(C2CCN(CCCCNC(=O)c3ccc(-c4ccc(C(F)(F)F)cc4)cc3)CC2)ccc2c1CCCC2
197 to 199 °C	CCc1nccn1-c1nc(-c2ccc(Cl)cc2)c(CCC(=O)O)o1
62 °C	CC(=O)CC(O)c1ccc([N+](=O)[O-])cc1 (stereo not drawn)
> 280 °C	c1ccc(-c2ccc3nc(C4(c5ccc6[nH]nnc6c5)N=c5ccccc5=N4)[nH]c3c2)cc1
205 to 207 °C	CC(C)C(N)C(=O)NC(Cc1ccccc1)C(O)C(O)C(Cc1ccccc1)NC(=O)C(N)C(C)C (stereo not drawn)
140 to 142 °C	CCS(=O)(=O)Nc1cc(-c2ncnc(C(F)F)c2Cl)c(Cl)cc1Cl
166 to 169 °C	Nc1c(F)c(-c2ccc(Cl)cc2)nc(C=O)c1Cl
118 to 120 °C	C[Si](C)(C)O[C@@H]1C(=O)N[C@@H]1c1ccccc1 (relative stereo)
158 °C	O=C(CCO)N[C@H]1CC[C@H](CCN2CCC(c3cccc4c3CCO4)CC2)CC1
276 to 278 °C	CC(C)(C)c1cc(NS(=O)(=O)c2ccc(N3CCNC3=O)cc2)cc(C(C)(C)C)c1
138 °C	Cc1cccc(C)c1NC(=O)CSc1cc(C(C)(C)C)c(O)c(C(C)(C)C)c1
138 to 140 °C	CC(C)(C)[C@@H](NS(=O)(=O)c1ccc(Oc2ccc(Cl)cc2)cc1)C(=O)O
> 350 °C	O=C(O)Cc1cc2c([N+](=O)[O-])c(O)c(O)cc2oc1=O
158 to 160 °C	O=C(NCc1ccc(Cl)cc1)n1cc(Br)cnc1=O

The next lines start with the compound.

SMILES	melting point
O=C(CNC1CCCCC1)Nc1ccc(C(=O)N2CCCCc3ccccc32)cc1	139 to 142 °C
Cc1ncc(CN2CCN(CCc3ccccc3)CC2)c(N)n1	162 to 165 °C
CCCSc1nc(N)n(-c2nnc(-c3ccccc3O)s2)n1	195 to 198 °C
OC1CC2c3ccccc3CCN2C2CCCCC12 (stereo not drawn)	140 to 142 °C
CC12CCC3C(CCC4=CC(=O)CCC43CO)C1CCC2O (stereo not drawn)	205 to 207 °C
Cc1cc(C(=O)O)nn1CC(=O)Nc1ccccc1	273 to 275 °C
Cc1c(F)cccc1Cc1c(-c2ccccc2)c2ccccn2c1C(=O)N1CCN(C(=O)OC(C)(C)C)[C@@H](CCO)C1	85 °C
C/C(=C\c1ccc(OC(C)C)cc1Oc1ncc(C(F)(F)F)cc1Cl)C(=O)NS(=O)(=O)NCCc1ccccc1	147 to 148 °C
Cc1cc(O)ccc1N=Cc1ccccc1O	95 to 97 °C
Cc1ccc(S(=O)(=O)c2cnc(C)nc2Nc2c(C)cc(C)cc2C)cc1	202 to 204 °C
CCCCc1ccc(C(O)=S)nc1	99 °C
COc1ccc(NS(=O)(=O)c2cc3cc(Br)ccc3oc2=O)cc1	182 to 184 °C
CN(C)c1cccc2c(S(=O)(=O)Nc3ccc(Cl)cn3)cccc12	160 to 162 °C
Cc1ccc(Cn2c3c(c4cc(OCc5ccccc5)ccc42)C(=O)C(=O)OC3)cc1	206 to 207 °C
CC(C)CCNC(=S)c1ccc2c(c1)N(C(C)CN1CCC[C@@H]1CO)c1ccccc1S2 (stereo partly drawn)	140 °C
O=C(O)c1ccc2sc3ccccc3c2c1	281 to 283 °C
N#Cc1ccc(OCC(O)CN2CC3CC(C2)CN(C(=O)OCc2ccc([N+](=O)[O-])cc2)C3)cc1 (stereo not drawn)	165 to 166 °C
N=C(NCc1c(F)cccc1F)NN=Cc1c(Cl)cccc1Cl	168 to 170 °C
CCCCOCCOC(=O)C(=O)Nc1nc(-c2ccccc2)cs1	94 to 95 °C
O=c1c2ccccc2cc2n1CCCCC2	99 to 101 °C
CC#CCOc1cc(/C=C/C(=O)O)ccc1OC(F)F	206 to 208 °C
C#CCN(Cc1cc2c(=O)[nH]c(COC(C)=O)nc2cc1Cl)c1ccc(C(=O)OC(C)(C)C)cc1	219 to 220 °C
COc1cc2c(cc1O)C(=O)C1c3c(cc(OC(C)C)c(OC)c3-2)CCN1C (stereo not drawn)	240 to 242 °C

SMILES	melting point
CC(C)(C)c1cc(CCc2ccccc2NC(=O)NCCCC2CCCCC2)cc(C(C)(C)C)c1O	166 °C
Nc1ccccc1SC[C@H](NC(=O)OCc1ccccc1)C(=O)O	161 to 162 °C
OCc1cn(Cc2ccc3cc(OCc4ccccc4)ccc3c2)cc1-c1ccccc1	116 to 117 °C
Oc1ccccc1-c1noc2ccsc12	121 °C
CCCc1nc2c(N)nc3ccccc3c2n1CCCCS(C)(=O)=O	202 to 204 °C
CCCc1ncc(CN2C(=O)c3ccccc3C2=O)s1	72 °C
CCC1=CC(c2cccc([N+](=O)[O-])c2)C2=C(CCCC2=O)N1 (stereo not drawn)	182 to 184 °C
FC(F)Oc1cn(-c2c(Cl)cc(C(F)(F)F)cc2Cl)nc1C(F)(F)F	55.5 to 58 °C
COC(=O)COc1cccc2c(CCSC(c3ccc(Cl)cc3)c3ccc(Cl)cc3)coc12	68 to 69 °C
C[C@@H](n1cnc2cc(-c3ccc(Cl)cc3)sc2c1=O)[C@](O)(Cn1cncn1)c1ccc(F)cc1F	158 to 160 °C
CCCCCCCCCCCCCCCc1cc2cc(C(=O)OCCCC)ccc2[nH]1	79 to 80 °C
Cc1nn(C)cc1C(=O)NC1=C(c2ccc(Cl)cc2)CCC1	103 to 105 °C
Cc1ccc2c(NCc3ccc(NC(=O)C4CCN(Cc5ccccc5)CC4)cc3)nc(Cl)nc2c1	212 °C
Cn1c(C(F)(F)F)cc(=O)n(-c2cc(OC=O)c(Cl)cc2F)c1=O	97 to 99 °C
COc1ccc(C2(COc3cccc4cc(NS(=O)(=O)C(F)(F)F)ccc34)N=CNO2)cc1 (stereo not drawn)	146 to 148 °C
Nc1nc2c(s1)CCN(CC=Cc1cccc(F)c1)CC2	128 to 132 °C
Cn1cc(-c2cccc(Cl)c2)c(=O)c(-c2cccc(Br)c2)c1	192 °C
CC(=O)OC(C)c1cccc2cc(C(C)=O)oc12 (stereo not drawn)	82 to 83 °C
CC(=O)OCC(=O)C1(OC(C)=O)CCC2C3CC(C)C4=CC(=O)C=CC4(C)C3C(O)CC21C (stereo not drawn)	216 °C
O=C(c1ccc(Br)cc1)c1cc2c(ccc3ccccc32)oc1=O	213 to 215 °C
COc1ccc(CNc2nnc(Cl)c3cc([N+](=O)[O-])ccc23)cc1Cl	179 to 180 °C
CCCCCCCCC1C=CC(Oc2ccc(C(=O)O)o2)=C2N=C3CCCCC3=C21 (stereo not drawn)	130 to 132 °C
CC(C)c1nn(-c2ccc(C(F)(F)F)cn2)cc1CCO	74 to 75 °C

SMILES	melting point
COC(=O)c1nsc2nccn12	164 to 165 °C
COc1cc(-c2csc(Br)c2Br)cc2oc(=O)c(C)c(C)c12	194 to 196 °C
CC1(C)CC(=O)c2c(-c3cncs3)cn(-c3ccccn3)c2C1	167 to 169 °C
Cc1cccc(C#C[C@@]2(O)CCC[C@@H](NC(=O)c3ccco3)C2)c1	139 to 142 °C
CCNCCc1c[nH]c2ccc(Cn3cncn3)cc12	106 to 107 °C
O=S(=O)(NCc1ccnc2c(Cl)cccc12)c1ccc(-c2ccc(C(F)(F)F)cc2C(F)(F)F)cc1	184 to 185 °C
O=S(CC#CCOc1ccccc1)c1ccc(Cl)cc1 (stereo not drawn)	102 to 103 °C
CC1(C)Oc2ccc(-c3c(O)c(=O)c3=O)cc2[C@@H](N2Cc3ccccc3C2=O)[C@@H]1O (relative stereo)	> 250 °C
CC(=O)OC1CC(=O)N([Si](C)(C)C)C1 (stereo not drawn)	148 to 150 °C
CCN(CCCc1c[nH]c2c(OC)cccc12)C1COc2c(F)ccc(C(N)=O)c2C1 (stereo not drawn)	148 to 153 °C
O=c1nc(-c2cc(-c3ccccc3)ccn2)sc2ccccc12	164 to 165 °C
NCC1CCN(c2nc3ccccc3[nH]2)CC1	136 to 138 °C
Oc1ccc2nc(SCCC=C(F)F)oc2c1	73.6 to 75.4 °C
Nc1ccc(Cl)cc1C(=O)c1ccccc1O	51 to 52 °C
CCOC(=O)c1c(-c2cc(C)c(O)c(C)c2)c(C)n2c1-c1cc(N)c(OC)cc1CC2	104 to 106 °C
O=c1c(Br)c(OCc2ccc(F)c(F)c2F)ccn1Cc1cccc(F)c1	176 to 178 °C
COC(=O)c1ccc(-c2ccncc2)c(C)c1	70 to 71 °C
COC(=O)CC(=O)Nc1ccccc1COc1ccc(C(C)=O)c(O)c1	130 to 132 °C
c1ccc(NC[C@@H]2N[C@H]2c2ccccc2)cc1 (relative stereo)	96 to 97 °C
CC(C)N(CCN(C(=O)N(C)C)c1cccc(N)n1)C(C)C	86 to 88 °C
C=C(CNNC(=O)OC(C)(C)C)c1ccccc1	153 to 154 °C
CCCOc1cccc2cc(-c3ccc4c(c3)C=C(C(=O)Nc3ccc(CN(C)C5CCOCC5)cc3)CCS4(=O)=O)oc12	246 to 248 °C
